The target in the first experiment is T1, Thyroid hormone receptor alpha (Homo sapiens, UniProt P10827).
T1 sequence (P10827 whole entry): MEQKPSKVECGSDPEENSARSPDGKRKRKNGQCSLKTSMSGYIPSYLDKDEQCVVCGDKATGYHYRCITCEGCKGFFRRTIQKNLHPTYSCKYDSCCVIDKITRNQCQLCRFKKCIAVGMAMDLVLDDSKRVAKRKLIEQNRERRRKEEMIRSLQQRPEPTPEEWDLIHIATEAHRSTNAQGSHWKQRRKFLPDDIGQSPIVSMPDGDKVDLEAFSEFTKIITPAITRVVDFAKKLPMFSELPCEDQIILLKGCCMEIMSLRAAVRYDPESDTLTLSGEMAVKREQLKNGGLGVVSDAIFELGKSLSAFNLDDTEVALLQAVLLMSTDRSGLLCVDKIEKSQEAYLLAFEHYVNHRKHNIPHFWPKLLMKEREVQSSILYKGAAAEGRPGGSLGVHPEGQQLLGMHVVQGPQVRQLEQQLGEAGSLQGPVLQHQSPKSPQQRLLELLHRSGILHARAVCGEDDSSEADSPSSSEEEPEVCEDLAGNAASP
Description: Inhibitory activity against human TRAFalpha.
Usually IC50 stands for the concentration at which inhibition is half-maximal. A higher IC50 goes with weaker potency in that assay. `Cc1oc2ccccc2c1Cc1cc(I)c(OCC(=O)O)c(I)c1`: the half-inhibitory concentration (IC50) was found to be 2200 nM.

In turn, `O=C(O)Cc1cc(Br)c(OCC2CCCCC2)c(Br)c1` had an IC50 of 420 nM. This IC50 is about 5.2-fold lower than that of the compound before.

`O=C(O)CCc1cc(Br)c(OCC2CCCCC2)c(Br)c1` showed an IC50 of 530 nM.

`CCCCCCOc1c(Br)cc(CC(=O)O)cc1Br` displayed an IC50 of 700 nM.

`CC(C)c1cc(Oc2c(Br)cc(C(=O)O)cc2Br)cc(C(C)C)c1O` displayed a concentration for half-maximal inhibition (IC50) of 1100 nM. This IC50 is about 1.6-fold higher than that of the compound before.

`CCCCCCOc1c(Br)cc(CCC(=O)O)cc1Br` registered an IC50 of 600 nM.

`CCC(CC)COc1c(Br)cc(CC(=O)O)cc1Br` showed an IC50 of 820 nM.

`CCCCc1oc2ccccc2c1C(=O)c1cc(I)c(CCN(CC)CC)c(I)c1`: the half-inhibitory concentration (IC50) is more than 10000 nM.

The target of a further experiment is T2, Thyroid hormone receptor beta (Homo sapiens, UniProt P10828).
T2 sequence (P10828 whole entry): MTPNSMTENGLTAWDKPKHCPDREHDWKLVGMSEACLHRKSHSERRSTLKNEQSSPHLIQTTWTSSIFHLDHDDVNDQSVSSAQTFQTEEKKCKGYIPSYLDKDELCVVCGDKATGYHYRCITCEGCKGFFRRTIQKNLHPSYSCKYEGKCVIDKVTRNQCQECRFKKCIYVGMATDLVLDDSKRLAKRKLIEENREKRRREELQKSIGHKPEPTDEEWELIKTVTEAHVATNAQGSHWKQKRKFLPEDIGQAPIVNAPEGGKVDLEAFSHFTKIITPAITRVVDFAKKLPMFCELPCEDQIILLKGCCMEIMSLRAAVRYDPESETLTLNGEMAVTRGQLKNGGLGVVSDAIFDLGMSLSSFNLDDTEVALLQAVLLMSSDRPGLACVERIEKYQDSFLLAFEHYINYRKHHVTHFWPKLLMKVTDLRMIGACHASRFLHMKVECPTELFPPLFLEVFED
Description: Inhibitory activity against human TRAFbeta.
In the case of `Cc1oc2ccccc2c1Cc1cc(I)c(OCC(=O)O)c(I)c1`, the IC50 amounted to 4100 nM.

The compound `O=C(O)Cc1cc(Br)c(OCC2CCCCC2)c(Br)c1` returned an IC50 of 520 nM. Compared with the last compound, the IC50 is about 7.9-fold lower.

Consider `O=C(O)CCc1cc(Br)c(OCC2CCCCC2)c(Br)c1`, for which the concentration for half-maximal inhibition (IC50) came out at 120 nM.

`CCCCCCOc1c(Br)cc(CC(=O)O)cc1Br`: the IC50 came out at 800 nM.

Compound `CC(C)c1cc(Oc2c(Br)cc(C(=O)O)cc2Br)cc(C(C)C)c1O` returned a 50% inhibitory concentration (IC50) of 4500 nM.

Consider `CCCCCCOc1c(Br)cc(CCC(=O)O)cc1Br`, for which the half-maximal inhibitory concentration (IC50) turned out to be 1000 nM.

In the case of `CCC(CC)COc1c(Br)cc(CC(=O)O)cc1Br`, half-maximal inhibition (IC50) required 700 nM.

Compound `CCCCc1oc2ccccc2c1C(=O)c1cc(I)c(CCN(CC)CC)c(I)c1` displayed an IC50 of more than 10000 nM.

Another experiment deals with T2, Thyroid hormone receptor beta. Nature of the experiment: Inhibitory activity against human Thyroid hormone receptor beta.
For `O=C(O)Cc1cc(Br)c(OCC2CCCCC2)c(Br)c1`, it took 770 nM to reach half-maximal inhibition (IC50).

Compound `CCOc1c(Br)cc(CC(=O)O)cc1Br` yielded an IC50 of 32000 nM. This IC50 lies about 42-fold higher than the previous one.

`CCC(CC)COc1c(Br)cc(CCC(=O)O)cc1Br` returned an IC50 of 810 nM.

On to `O=C(O)CCc1cc(Br)c(OCC2CCCCC2)c(Br)c1`, for which the half-inhibitory concentration (IC50) is 190 nM. This IC50 is about 4.3-fold lower than that of the compound before.

As to `CCCCOc1c(Br)cc(CC(=O)O)cc1Br`, it took 1900 nM to reach half-maximal inhibition (IC50).

For the compound `CC(C)CCOc1c(Br)cc(CC(=O)O)cc1Br`, the IC50 worked out at 18000 nM.

For `CCCCCCOc1c(Br)cc(CC(=O)O)cc1Br`, the IC50 was determined as 1500 nM.

Regarding `CCCCCOc1c(Br)cc(CC(=O)O)cc1Br`, it took 5700 nM to reach half-maximal inhibition (IC50).

With `CCCCCCOc1c(Br)cc(CCC(=O)O)cc1Br`, inhibition was half-maximal at 360 nM (IC50).

For the compound `CC(C)CCOc1c(Br)cc(CCC(=O)O)cc1Br`, half-maximal inhibition (IC50) was put at 1800 nM.

The compound `CCC(CC)COc1c(Br)cc(CC(=O)O)cc1Br` had an IC50 of 800 nM.

Regarding `CCCCc1oc2ccccc2c1C(=O)c1cc(I)c(CCN(CC)CC)c(I)c1`, the IC50 was 600 nM.

Another experiment has as its target T3, Thyroid hormone receptor (Homo sapiens, UniProt P10827+P10828).
T3 sequence (P10827 whole entry): T1 sequence (P10827 whole entry)
T3 sequence (P10828 whole entry): T2 sequence (P10828 whole entry)
Description: Binding affinity for human Thyroid hormone receptor. The experiment is classed as protein-complex assay.
Usually Ki stands for a dissociation constant, usually derived from enzyme kinetics or from competition with a known ligand. A low value points to higher affinity. Compound `CC(C)c1cc(Oc2c(Br)cc(C(=O)O)cc2Br)cc(C(C)C)c1O` registered a Ki of 1380 nM.

The target in another experiment is T1, Thyroid hormone receptor alpha. Nature of the experiment: Inhibitory activity against human Thyroid hormone receptor alpha.
Regarding `O=C(O)Cc1cc(Br)c(OCC2CCCCC2)c(Br)c1`, 2700 nM corresponded to half-maximal inhibition (IC50).

In the case of `CCOc1c(Br)cc(CC(=O)O)cc1Br`, 160000 nM corresponded to half-maximal inhibition (IC50).

For `CCC(CC)COc1c(Br)cc(CCC(=O)O)cc1Br`, 1600 nM corresponded to half-maximal inhibition (IC50).

`O=C(O)CCc1cc(Br)c(OCC2CCCCC2)c(Br)c1`: the IC50 came to 460 nM.

Consider `CCCCOc1c(Br)cc(CC(=O)O)cc1Br`, for which the IC50 turned out to be 26000 nM.

On to `CC(C)CCOc1c(Br)cc(CC(=O)O)cc1Br`, for which the IC50 turned out to be 13000 nM.

As to `CCCCCCOc1c(Br)cc(CC(=O)O)cc1Br`, the IC50 came out at 5200 nM.

As to `CCCCCOc1c(Br)cc(CC(=O)O)cc1Br`, the IC50 was found to be 20000 nM.

As to `CCCCCCOc1c(Br)cc(CCC(=O)O)cc1Br`, the 50% inhibitory concentration (IC50) came to 1100 nM.

The compound `CC(C)CCOc1c(Br)cc(CCC(=O)O)cc1Br` gave a half-maximal inhibitory concentration (IC50) of 4400 nM.

Compound `CCC(CC)COc1c(Br)cc(CC(=O)O)cc1Br` had a half-maximal inhibitory concentration (IC50) of 6900 nM. This IC50 is about 1.6-fold higher than that of the compound before.

For the compound `CCCCc1oc2ccccc2c1C(=O)c1cc(I)c(CCN(CC)CC)c(I)c1`, half-maximal inhibition (IC50) required 650 nM.

Values taken from ChEMBL document CHEMBL1143623, “Thyroid receptor ligands. 3. Design and synthesis of 3,5-dihalo-4-alkoxyphenylalkanoic acids as indirect antagonists of the thyroid hormone receptor” (J Med Chem, 2005).
